Measurements reported in ChEMBL document CHEMBL4507256 (2021).

Key:
[1] = test system: Mast/stem cell growth factor receptor Kit (Homo sapiens), P10721 [V559D,T670I]; settings: Compound concentration 1000.0 nM
[2] = molecular target: Serine/threonine-protein kinase 38 (Homo sapiens) (UniProt Q15208); settings: Compound concentration 1000.0 nM
[3] = molecular target: Tyrosine-protein kinase HCK (Homo sapiens) (UniProt P08631); settings: Compound concentration 1000.0 nM
[4] = molecular target: Myosin light chain kinase family member 4 (Homo sapiens) (UniProt Q86YV6); settings: Compound concentration 1000.0 nM
[5] = molecular target: Non-receptor tyrosine-protein kinase TYK2 (Homo sapiens) (UniProt P29597); settings: Compound concentration 1000.0 nM
[6] = molecular target: Serine/threonine-protein kinase/endoribonuclease IRE1 (Homo sapiens) (UniProt O75460); settings: Compound concentration 1000.0 nM
[7] = molecular target: Mitogen-activated protein kinase kinase kinase 4 (Homo sapiens) (UniProt Q9Y6R4); settings: Compound concentration 1000.0 nM
[8] = molecular target: Serine/threonine-protein kinase SIK3 (Homo sapiens) (UniProt Q9Y2K2); settings: Compound concentration 1000.0 nM
[9] = molecular target: Ephrin type-A receptor 1 (Homo sapiens) (UniProt P21709); settings: Compound concentration 1000.0 nM
[10] = molecular target: Serine/threonine-protein kinase pim-3 (Homo sapiens) (UniProt Q86V86); settings: Compound concentration 1000.0 nM
[11] = molecular target: Ribosomal protein S6 kinase alpha-1 (Homo sapiens) (UniProt Q15418); settings: Compound concentration 1000.0 nM
[12] = molecular target: Serine/threonine-protein kinase 25 (Homo sapiens) (UniProt O00506); settings: Compound concentration 1000.0 nM
[13] = molecular target: Sigma intracellular receptor 2 (Homo sapiens) (UniProt Q5BJF2); settings: Compound concentration 10.0 uM
[14] = molecular target: Phosphatidylinositol 5-phosphate 4-kinase type-2 beta (Homo sapiens) (UniProt P78356); settings: Compound concentration 1000.0 nM
[15] = molecular target: Leukocyte tyrosine kinase receptor (Homo sapiens) (UniProt P29376); settings: Compound concentration 1000.0 nM
[16] = test system: Receptor-type tyrosine-protein kinase FLT3 (Homo sapiens), P36888 [R834Q]; settings: Compound concentration 1000.0 nM
[17] = molecular target: Phosphorylase b kinase regulatory subunit alpha, liver isoform (Homo sapiens) (UniProt P46019); settings: Compound concentration 1000.0 nM
[18] = molecular target: Serine/threonine-protein kinase MRCK gamma (Homo sapiens) (UniProt Q6DT37); settings: Compound concentration 1000.0 nM
[19] = molecular target: Phosphatidylinositol 3-kinase catalytic subunit type 3 (Homo sapiens) (UniProt Q8NEB9); settings: Compound concentration 1000.0 nM
[20] = molecular target: Tyrosine-protein kinase receptor Tie-1 (Homo sapiens) (UniProt P35590); settings: Compound concentration 1000.0 nM
[21] = molecular target: Tyrosine-protein kinase Fer (Homo sapiens) (UniProt P16591); settings: Compound concentration 1000.0 nM
[22] = molecular target: Mitogen-activated protein kinase kinase kinase kinase 5 (Homo sapiens) (UniProt Q9Y4K4); settings: Compound concentration 1000.0 nM
[23] = molecular target: Alpha-2A adrenergic receptor (Homo sapiens) (UniProt P08913); settings: Compound concentration 10.0 uM
[24] = molecular target: Insulin receptor-related protein (Homo sapiens) (UniProt P14616); settings: Compound concentration 1000.0 nM
[25] = molecular target: Serine/threonine-protein kinase PAK 2 (Homo sapiens) (UniProt Q13177); settings: Compound concentration 1000.0 nM
[26] = molecular target: Calcium/calmodulin-dependent protein kinase type 1G (Homo sapiens) (UniProt Q96NX5); settings: Compound concentration 1000.0 nM
[27] = molecular target: Tyrosine-protein kinase TXK (Homo sapiens) (UniProt P42681); settings: Compound concentration 1000.0 nM
[28] = molecular target: Dual specificity mitogen-activated protein kinase kinase 2 (Homo sapiens) (UniProt P36507); settings: Compound concentration 1000.0 nM
[29] = molecular target: Macrophage colony-stimulating factor 1 receptor (Homo sapiens) (UniProt P07333); settings: Compound concentration 1000.0 nM
[30] = test system: Receptor-type tyrosine-protein kinase FLT3 (Homo sapiens), P36888 [K663Q]; settings: Compound concentration 1000.0 nM
[31] = molecular target: Mitogen-activated protein kinase 13 (Homo sapiens) (UniProt O15264); settings: Compound concentration 1000.0 nM
[32] = molecular target: G protein-coupled receptor kinase 4 (Homo sapiens) (UniProt P32298); settings: Compound concentration 1000.0 nM
[33] = molecular target: Insulin-like growth factor 1 receptor (Homo sapiens) (UniProt P08069); settings: Compound concentration 1000.0 nM
[34] = molecular target: Mitogen-activated protein kinase 6 (Homo sapiens) (UniProt Q16659); settings: Compound concentration 1000.0 nM
[35] = molecular target: Tyrosine-protein kinase ABL1 (Homo sapiens) (UniProt P00519); settings: Compound concentration 1000.0 nM
[36] = molecular target: High affinity nerve growth factor receptor (Homo sapiens) (UniProt P04629); settings: Compound concentration 1000.0 nM
[37] = molecular target: Alpha-1B adrenergic receptor (Homo sapiens) (UniProt P35368); settings: Compound concentration 10.0 uM
[38] = molecular target: Sigma non-opioid intracellular receptor 1 (Homo sapiens, UniProt Q99720); experiment: GPCRScan assay: inhibition of Sigma 1; design: radioligand conc. used [nm] 4.0 – 5.0, parental cells HEKT
[39] = molecular target: 1-phosphatidylinositol 3-phosphate 5-kinase (Homo sapiens) (UniProt Q9Y2I7); settings: Compound concentration 1000.0 nM
[40] = molecular target: Cyclin-dependent kinase 14 (Homo sapiens) (UniProt O94921); settings: Compound concentration 1000.0 nM
[41] = molecular target: Serine/threonine-protein kinase TBK1 (Homo sapiens) (UniProt Q9UHD2); settings: Compound concentration 1000.0 nM
[42] = molecular target: Receptor-interacting serine/threonine-protein kinase 2 (Homo sapiens) (UniProt O43353); settings: Compound concentration 1000.0 nM
[43] = molecular target: Mitogen-activated protein kinase 3 (Homo sapiens) (UniProt P27361); settings: Compound concentration 1000.0 nM
[44] = molecular target: Ribosomal protein S6 kinase alpha-4 (Homo sapiens) (UniProt O75676); settings: Compound concentration 1000.0 nM

Sigma non-opioid intracellular receptor 1, sequence (Q99720 whole entry): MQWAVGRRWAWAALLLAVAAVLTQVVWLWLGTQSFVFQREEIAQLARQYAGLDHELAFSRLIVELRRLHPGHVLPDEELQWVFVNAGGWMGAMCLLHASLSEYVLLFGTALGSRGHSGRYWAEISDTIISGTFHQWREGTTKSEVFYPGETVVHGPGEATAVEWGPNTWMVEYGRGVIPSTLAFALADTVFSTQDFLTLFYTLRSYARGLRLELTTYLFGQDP
Dual specificity mitogen-activated protein kinase kinase 2 (Homo sapiens), sequence (P36507 whole entry): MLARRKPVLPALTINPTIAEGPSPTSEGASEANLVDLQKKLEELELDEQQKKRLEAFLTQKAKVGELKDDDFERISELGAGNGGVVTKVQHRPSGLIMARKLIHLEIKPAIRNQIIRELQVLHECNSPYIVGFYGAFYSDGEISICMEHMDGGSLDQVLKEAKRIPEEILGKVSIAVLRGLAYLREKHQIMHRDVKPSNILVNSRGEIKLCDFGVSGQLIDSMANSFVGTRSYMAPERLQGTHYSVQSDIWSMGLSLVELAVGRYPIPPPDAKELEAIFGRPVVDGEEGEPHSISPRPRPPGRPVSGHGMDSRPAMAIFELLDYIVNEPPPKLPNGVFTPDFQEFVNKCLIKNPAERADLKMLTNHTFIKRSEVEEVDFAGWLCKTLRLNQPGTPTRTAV
Serine/threonine-protein kinase TBK1 (Homo sapiens), sequence (Q9UHD2 whole entry): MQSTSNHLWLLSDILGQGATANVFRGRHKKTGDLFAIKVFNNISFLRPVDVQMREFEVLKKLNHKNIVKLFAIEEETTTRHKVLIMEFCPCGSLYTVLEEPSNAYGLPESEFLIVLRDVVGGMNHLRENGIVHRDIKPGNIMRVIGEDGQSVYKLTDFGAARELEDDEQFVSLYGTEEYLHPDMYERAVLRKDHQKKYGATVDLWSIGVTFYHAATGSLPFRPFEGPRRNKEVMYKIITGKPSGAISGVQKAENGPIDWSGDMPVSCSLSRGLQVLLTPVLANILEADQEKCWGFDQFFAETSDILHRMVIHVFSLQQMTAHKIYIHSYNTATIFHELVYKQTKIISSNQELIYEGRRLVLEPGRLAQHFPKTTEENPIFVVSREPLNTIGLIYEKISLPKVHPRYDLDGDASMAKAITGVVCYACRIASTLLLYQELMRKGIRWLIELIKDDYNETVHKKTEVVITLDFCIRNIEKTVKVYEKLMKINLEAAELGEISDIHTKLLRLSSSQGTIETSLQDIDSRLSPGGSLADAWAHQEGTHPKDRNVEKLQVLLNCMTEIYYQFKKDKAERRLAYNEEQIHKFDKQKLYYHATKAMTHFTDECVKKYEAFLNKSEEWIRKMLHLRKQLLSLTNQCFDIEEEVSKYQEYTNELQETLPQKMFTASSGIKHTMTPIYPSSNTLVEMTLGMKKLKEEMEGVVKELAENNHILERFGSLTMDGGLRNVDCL
Mitogen-activated protein kinase 3 (Homo sapiens), sequence (P27361 whole entry): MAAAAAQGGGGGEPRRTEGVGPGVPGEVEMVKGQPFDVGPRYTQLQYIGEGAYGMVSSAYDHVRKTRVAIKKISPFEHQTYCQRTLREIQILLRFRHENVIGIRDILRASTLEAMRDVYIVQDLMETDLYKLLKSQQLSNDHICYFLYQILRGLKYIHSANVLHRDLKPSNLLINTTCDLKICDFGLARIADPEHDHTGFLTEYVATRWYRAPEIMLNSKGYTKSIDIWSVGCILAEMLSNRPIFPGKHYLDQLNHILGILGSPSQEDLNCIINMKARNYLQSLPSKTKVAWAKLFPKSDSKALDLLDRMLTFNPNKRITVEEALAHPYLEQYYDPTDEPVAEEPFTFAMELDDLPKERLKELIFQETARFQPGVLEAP
Leukocyte tyrosine kinase receptor (Homo sapiens), sequence (P29376 whole entry): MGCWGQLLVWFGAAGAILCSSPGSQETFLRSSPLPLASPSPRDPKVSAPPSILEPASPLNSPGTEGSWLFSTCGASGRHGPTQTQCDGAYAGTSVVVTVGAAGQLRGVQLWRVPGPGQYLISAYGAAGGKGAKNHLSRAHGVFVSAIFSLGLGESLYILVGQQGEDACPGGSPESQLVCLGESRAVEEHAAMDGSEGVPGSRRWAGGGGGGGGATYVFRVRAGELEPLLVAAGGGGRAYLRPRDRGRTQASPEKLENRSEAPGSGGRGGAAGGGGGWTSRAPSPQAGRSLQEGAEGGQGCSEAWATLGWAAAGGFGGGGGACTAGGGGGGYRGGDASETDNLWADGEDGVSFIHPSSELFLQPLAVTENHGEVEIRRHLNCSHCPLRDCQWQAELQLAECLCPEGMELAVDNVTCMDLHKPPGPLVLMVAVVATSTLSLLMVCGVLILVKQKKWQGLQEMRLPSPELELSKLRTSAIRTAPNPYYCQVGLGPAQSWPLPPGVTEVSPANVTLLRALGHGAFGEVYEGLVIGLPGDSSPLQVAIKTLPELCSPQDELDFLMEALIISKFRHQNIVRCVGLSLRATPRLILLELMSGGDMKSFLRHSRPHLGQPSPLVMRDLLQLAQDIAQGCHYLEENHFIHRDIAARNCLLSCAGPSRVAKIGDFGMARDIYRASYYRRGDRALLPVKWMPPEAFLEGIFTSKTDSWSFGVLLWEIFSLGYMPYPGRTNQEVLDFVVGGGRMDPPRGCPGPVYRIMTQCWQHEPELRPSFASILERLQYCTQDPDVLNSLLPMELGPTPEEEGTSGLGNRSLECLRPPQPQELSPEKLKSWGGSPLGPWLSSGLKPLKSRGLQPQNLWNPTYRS
Ephrin type-A receptor 1 (Homo sapiens), sequence (P21709 whole entry): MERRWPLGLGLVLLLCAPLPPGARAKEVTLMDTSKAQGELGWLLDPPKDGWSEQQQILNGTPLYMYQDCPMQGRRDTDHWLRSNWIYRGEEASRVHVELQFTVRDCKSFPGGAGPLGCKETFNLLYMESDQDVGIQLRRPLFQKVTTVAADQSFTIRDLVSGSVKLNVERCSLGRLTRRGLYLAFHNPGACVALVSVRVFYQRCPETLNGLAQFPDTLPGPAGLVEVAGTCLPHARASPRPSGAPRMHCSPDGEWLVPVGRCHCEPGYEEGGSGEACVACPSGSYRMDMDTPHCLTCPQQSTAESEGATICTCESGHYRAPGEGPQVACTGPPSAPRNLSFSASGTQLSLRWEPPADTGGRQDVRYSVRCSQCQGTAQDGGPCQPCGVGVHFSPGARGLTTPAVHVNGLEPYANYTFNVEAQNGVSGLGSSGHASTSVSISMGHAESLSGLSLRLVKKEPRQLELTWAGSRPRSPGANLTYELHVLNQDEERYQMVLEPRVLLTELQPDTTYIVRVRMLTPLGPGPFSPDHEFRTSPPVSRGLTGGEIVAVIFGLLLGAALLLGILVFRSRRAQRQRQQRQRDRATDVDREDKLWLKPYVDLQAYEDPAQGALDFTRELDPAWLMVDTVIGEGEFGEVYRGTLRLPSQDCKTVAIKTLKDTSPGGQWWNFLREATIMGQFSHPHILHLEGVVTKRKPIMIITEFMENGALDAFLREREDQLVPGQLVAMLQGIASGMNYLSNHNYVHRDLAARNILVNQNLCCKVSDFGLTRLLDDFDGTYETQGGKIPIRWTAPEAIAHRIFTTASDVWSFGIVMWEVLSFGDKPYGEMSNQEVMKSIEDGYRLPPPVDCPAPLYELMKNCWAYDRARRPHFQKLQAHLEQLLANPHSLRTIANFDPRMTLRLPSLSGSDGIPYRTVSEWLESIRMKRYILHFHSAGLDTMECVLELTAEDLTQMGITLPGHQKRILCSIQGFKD
Calcium/calmodulin-dependent protein kinase type 1G (Homo sapiens), sequence (Q96NX5 whole entry): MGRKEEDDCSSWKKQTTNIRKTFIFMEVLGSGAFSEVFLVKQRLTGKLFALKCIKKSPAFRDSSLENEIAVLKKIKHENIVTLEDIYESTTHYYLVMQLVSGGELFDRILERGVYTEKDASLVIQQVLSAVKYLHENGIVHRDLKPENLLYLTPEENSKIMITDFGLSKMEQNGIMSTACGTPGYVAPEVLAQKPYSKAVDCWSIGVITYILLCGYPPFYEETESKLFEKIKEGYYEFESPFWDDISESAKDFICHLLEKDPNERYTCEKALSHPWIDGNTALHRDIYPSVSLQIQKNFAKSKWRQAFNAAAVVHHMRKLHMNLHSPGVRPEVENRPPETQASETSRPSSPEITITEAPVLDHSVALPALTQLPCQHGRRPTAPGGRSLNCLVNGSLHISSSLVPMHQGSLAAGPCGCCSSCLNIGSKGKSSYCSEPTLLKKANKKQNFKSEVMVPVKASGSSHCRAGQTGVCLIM
Tyrosine-protein kinase HCK (Homo sapiens), sequence (P08631 2-526 limits assumed): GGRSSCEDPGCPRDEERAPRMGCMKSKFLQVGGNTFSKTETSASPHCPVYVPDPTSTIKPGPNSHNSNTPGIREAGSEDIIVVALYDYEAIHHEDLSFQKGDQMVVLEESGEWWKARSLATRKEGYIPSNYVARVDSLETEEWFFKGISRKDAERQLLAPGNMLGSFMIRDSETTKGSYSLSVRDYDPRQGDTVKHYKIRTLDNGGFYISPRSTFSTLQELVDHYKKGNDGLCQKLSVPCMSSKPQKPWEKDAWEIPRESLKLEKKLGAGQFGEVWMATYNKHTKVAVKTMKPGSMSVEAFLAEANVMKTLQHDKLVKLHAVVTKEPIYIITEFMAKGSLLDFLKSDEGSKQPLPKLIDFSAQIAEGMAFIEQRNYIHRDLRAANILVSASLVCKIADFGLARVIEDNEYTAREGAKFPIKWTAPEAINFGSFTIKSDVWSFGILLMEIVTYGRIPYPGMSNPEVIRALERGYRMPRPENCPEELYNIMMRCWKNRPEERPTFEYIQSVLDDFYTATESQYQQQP
Mitogen-activated protein kinase 13 (Homo sapiens), sequence (O15264 whole entry): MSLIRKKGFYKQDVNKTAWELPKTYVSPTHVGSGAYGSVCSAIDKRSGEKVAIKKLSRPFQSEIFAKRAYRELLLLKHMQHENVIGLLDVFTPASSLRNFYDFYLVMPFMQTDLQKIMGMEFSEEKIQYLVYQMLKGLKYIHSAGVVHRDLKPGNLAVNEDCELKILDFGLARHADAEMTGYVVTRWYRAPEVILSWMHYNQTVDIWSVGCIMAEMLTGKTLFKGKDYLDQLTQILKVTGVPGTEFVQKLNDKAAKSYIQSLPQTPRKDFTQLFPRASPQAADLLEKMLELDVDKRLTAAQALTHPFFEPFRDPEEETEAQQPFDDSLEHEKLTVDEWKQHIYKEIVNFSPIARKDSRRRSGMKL

CCC(=N\O)/C(C)=C/c1ccc(F)c(C)c1 [A-226]
inactive: residual activity [1] 100% | residual activity [2] 95% | residual activity [3] 80% | residual activity [4] 99% | residual activity [5] 100% | residual activity [6] 90% | residual activity [7] 72% | residual activity [8] 89% | residual activity [9] 83% | residual activity [10] 80% | residual activity [11] 100% | residual activity [12] 100% | inhibition [13] 33.4% | residual activity [14] 74% | residual activity [15] 61% | residual activity [16] 100% | residual activity [17] 100% | residual activity [18] 85% | residual activity [19] 100% | residual activity [20] 100% | residual activity [21] 80% | residual activity [22] 100% | inhibition [23] 2.82% | residual activity [24] 100% | residual activity [25] 79% | residual activity [26] 100% | residual activity [27] 73% | residual activity [28] 92% | residual activity [29] 90% | residual activity [30] 100% | residual activity [31] 100% | residual activity [32] 100% | residual activity [33] 100% | residual activity [34] 100% | residual activity [35] 100% | residual activity [36] 100% | inhibition [37] 0.56% | residual activity [39] 100% | residual activity [40] 92% | residual activity [41] 93% | residual activity [42] 65% | residual activity [43] 100% | residual activity [44] 91%
529 nM: Ki ([38]; read-out: Ki)

CCC(=N\O)/C(C)=C/c1ccc(F)cc1 [A-079]
505 nM: Ki ([38]; read-out: Ki)
inactive: residual activity [1] 95% | residual activity [2] 94% | residual activity [3] 100% | residual activity [4] 94% | residual activity [5] 73% | residual activity [6] 77% | residual activity [7] 99% | residual activity [8] 68% | residual activity [9] 82% | residual activity [10] 96% | residual activity [11] 100% | residual activity [12] 86% | inhibition [13] 22.6% | residual activity [14] 91% | residual activity [15] 87% | residual activity [16] 80% | residual activity [17] 90% | residual activity [18] 73% | residual activity [19] 83% | residual activity [20] 63% | residual activity [21] 74% | residual activity [22] 80% | inhibition [23] 5.31% | residual activity [24] 83% | residual activity [25] 82% | residual activity [26] 97% | residual activity [27] 81% | residual activity [28] 100% | residual activity [29] 91% | residual activity [30] 100% | residual activity [31] 92% | residual activity [32] 100% | residual activity [33] 79% | residual activity [34] 73% | residual activity [35] 83% | residual activity [36] 83% | inhibition [37] 3.8% | residual activity [39] 92% | residual activity [40] 91% | residual activity [41] 75% | residual activity [42] 91% | residual activity [43] 69% | residual activity [44] 81%
457 nM: Ki ([38]; read-out: pKi (converted))
